Test results taken from patent US4349547A, “Suppressing obesity and over-secretion of insulin with 2-(α-hydroxy-m-trifluoromethylbenzyl)azetidine” (priority 1979, dated 1982).
Counter-ions that a name gives are not always drawn. Like-named read-outs stand apart in the source and are kept apart here.

Columns and labels:
Anorectic effect in mice = format: in vivo, mouse (ICR); details: 50 mg/kg oral gavage, control = 100
Description: (a) Anorectic effect in mice
ICR mice, male and aged seven weeks (in groups of six individuals), which had been acclimatized to 6-hour/day feeding (CE-2 powder, commercial product of Clea Japan Ltd., Tokyo, Japan) for seven days were administered a dosage, by oral gavage, with a solution of 50 mg/kg of each test compound in 5% gum arabic at 0.5 hour before feeding on the eighth day, and the food intakes were compared with those of control mice given 5% gum arabic only. Each figure in the table is the percent food intake, with the corresponding figure for the control being 100.

Anorectic effect in rats = format: in vivo, rat (Sprague-Dawley); details: Rattus norvegicus, oral gavage, 50% inhibition of food intake
Description: (b) Anorectic effect in rats
Sprague-Dawley (SD) rats, male and aged seven weeks, fasted for 24 hours (in groups of six individuals) were dosed, by oral gavage, with a solution of each test compound in 5% gum arabic, and feeding (CE-2 powder) was started at 0.5 hour after administration. The dose (ED50) which caused a 50% inhibition of food intake as compared with the control dosed with 5% gum arabic was determined.

[1] = test system: biosynthesis of fatty acid; test: Suppression of biosynthesis of fatty acid (incorporation of glucose-U-14C into liver and epididymal adipose tissue lipids); format: in vivo, rat (SD); details: Rattus norvegicus, 1 h, oral, 50% inhibition of glucose-U-14C incorporation, 60 minutes after glucose
Description: (c) Suppression of biosynthesis of fatty acid
Male SD rats fasted for 24 hours, were orally dosed with erythro-(I) hydrochloride and after a lapse of 30 minutes, glucose-U-^14 C (140 μCi/2 g/kg) was orally administered. The animals were sacrificed after 60 minutes and the amounts of incorporation of glucose-U-^14 C into the liver and the epididymal adipose tissue lipids were determined to calculate the dose (ED50) which caused a 50% inhibition of glucose-U-^14 C incorporation, as compared to control rats, which had fasted, had not been so dosed, and had been orally administered with glucose-U-^14 C (140μCi/2 g/kg).

insulin secretion = test: Suppression of insulin secretion (insulin area after glucose loading); format: in vivo, rat (Fatty rats); details: 50 mg/kg oral; glucose 3 g/kg after 30 minutes; blood at 30, 60 and 120 minutes; control 739
Description: (d) Suppression of insulin secretion
Fatty rats, female and aged 14 weeks, were used after fasting for 24 hours. The rats (in groups of five individuals) were orally dosed with a solution of 50 mg/kg of erythro-(I) hydrochloride in 5% gum arabic and, after 30 minutes, glucose (3 g/kg) was orally administered. At 30, 60 and 120 minutes after glucose loading, blood was withdrawn. The plasma samples were assayed for insulin and the insulin area was calculated.

[2] = Estimation of LD50 in mice; design: species or system mouse (ICR); details: mouse, in vivo; oral; kept for seven days; Probit analysis
Description: (e) Estimation of LD50 in mice
ICR mice, male and aged nine weeks, were used without fasting. The mice (in groups of six individuals) were orally dosed with a solution of erythro-(I) hydrochloride (333, 500 and 750 mg/kg) or erythro-(VIII) hydrochloride (750, 1100 and 1700 mg/kg) in 5% gum arabic and kept for seven days. LD50 was calculated using the Probit analysis.

[3] = Antiobesity action (general statement); format: in vivo; details: compared with (VII)
[4] = in vivo
[5] = Toxicity (general statement); details: in vivo
[6] = 0.5 hour, read-out: ED50 0.5 hour after administration
[7] = 1 hour, read-out: ED50 1 hour after administration
[8] = 2 hours, read-out: ED50 2 hours after administration

Row | Compound | Food intake (%) 0.5 hour after administration (Anorectic effect in mice) [%] | Food intake (%) 1 hour after administration (Anorectic effect in mice) [%] | Food intake (%) 2 hours after administration (Anorectic effect in mice) [%] | ED50 (Anorectic effect in rats; [6]) [mg/kg] | ED50 (Anorectic effect in rats; [7]) [mg/kg] | ED50 (Anorectic effect in rats; [8]) [mg/kg] | ED50 ([1]; epididymal adipose tissue lipids, read-out: Epididymal adipose tissue: ED50) [mg/kg] | ED50 ([1]; liver lipids, read-out: Liver: ED50) [mg/kg] | Insulin area (insulin secretion) [μU/ml.hr] | LD50 at 168 h [2] [mg/kg] | antiobesity action [3] | absorbability on oral administration [4] | toxicity [5]
1 | O[C@@H](c1cccc(C(F)(F)F)c1)[C@H]1CCN1 (relative stereo) [Erythro-(I) hydrochloride, erythro-2-(α-hydroxy-m-trifluoromethylbenzyl)azetidine hydrochloride] | 44.0 | 50.6 | 67.0 | 20 | 20 | 25 | 20 | 20 | 51 | 499 | – | – | –
2 | O[C@@H](c1ccccc1)[C@H]1CCN1 (relative stereo) [Erythro-(VII) hydrochloride, 2-(α-hydroxybenzyl)azetidine, reference compound] | – | – | – | 35 | 50 | 300 | – | – | – | 902 | – | – | –
3 | O[C@@H](c1cccc(C(F)(F)F)c1)[C@@H]1CCN1 (relative stereo) [Threo-(I) hydrochloride, Threo-2-(α-hydroxy-m-trifluoromethylbenzyl)azetidine hydrochloride] | 55.0 | 72.0 | 84.8 | – | – | – | – | – | – | – | – | – | –
4 | O[C@@H](c1ccccc1)[C@@H]1CCN1 (relative stereo) [Threo-(VII) hydrochloride, 2-(α-hydroxybenzyl)azetidine, reference compound] | 70.0 | 89.3 | 98.3 | – | – | – | – | – | – | – | – | – | –
5 | OC(c1cccc(C(F)(F)F)c1)C1CCN1 (stereo not drawn) [Compound (I), 2-(α-hydroxy-m-trifluoromethylbenzyl)azetidine] | – | – | – | – | – | – | – | – | – | – | very potent and long lasting antiobesity action, surpassing the action of (VII) | good absorbability on oral administration | low toxicity
